Results: PubChem BioAssay (NCI)
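These data come from cells grown in 96-well plates and exposed to compound for 48 hours at five concentrations. GI50 = concentration required for 50% inhibition of growth. TGI: total growth inhibition.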

Assays:
Assay in all cases: NCI tumour cell line growth inhibition, 48 h
NCI-H23 lung = system: NCI-H23 lung
NCI/ADR-RES ovarian = system: NCI/ADR-RES ovarian
MALME-3M melanoma = system: MALME-3M melanoma
HT29 colon = system: HT29 colon
A549 NSCLC = system: A549 NSCLC
HCT-116 colon = system: HCT-116 colon
SF-268 CNS = system: SF-268 CNS
A498 renal = system: A498 renal
NCI-H460 lung = system: NCI-H460 lung
UO-31 renal = system: UO-31 renal
UACC-62 melanoma = system: UACC-62 melanoma
SF-295 CNS = system: SF-295 CNS
OVCAR-4 ovarian = system: OVCAR-4 ovarian
TK-10 renal = system: TK-10 renal
HCT-15 colon = system: HCT-15 colon
MOLT-4 leukemia = system: MOLT-4 leukemia
HL-60(TB) leukemia = system: HL-60(TB) leukemia
SK-OV-3 ovarian = system: SK-OV-3 ovarian
M14 melanoma = system: M14 melanoma
HOP-62 NSCLC = system: HOP-62 NSCLC
DU-145 prostate = system: DU-145 prostate
SN12C renal = system: SN12C renal
SK-MEL-2 melanoma = system: SK-MEL-2 melanoma
786-0 renal = system: 786-0 renal
K-562 leukemia = system: K-562 leukemia
MCF7 breast = system: MCF7 breast
CCRF-CEM leukemia = system: CCRF-CEM leukemia
RXF 393 renal = system: RXF 393 renal
SW-620 colon = system: SW-620 colon
MDA-MB-231 breast = system: MDA-MB-231 breast
SK-MEL-5 melanoma = system: SK-MEL-5 melanoma
ACHN renal = system: ACHN renal
BT-549 breast = system: BT-549 breast
HCC-2998 colon = system: HCC-2998 colon
SNB-19 CNS = system: SNB-19 CNS
COLO 205 colon = system: COLO 205 colon
MDA-MB-435 = system: MDA-MB-435
NCI-H226 lung = system: NCI-H226 lung
OVCAR-5 ovarian = system: OVCAR-5 ovarian
NCI-H522 lung = system: NCI-H522 lung
CAKI-1 renal = system: CAKI-1 renal
UACC-257 melanoma = system: UACC-257 melanoma
SNB-75 CNS = system: SNB-75 CNS
HS 578T breast = system: HS 578T breast
HOP-92 NSCLC = system: HOP-92 NSCLC
EKVX NSCLC = system: EKVX NSCLC
SK-MEL-28 melanoma = system: SK-MEL-28 melanoma
SF-539 CNS = system: SF-539 CNS
KM12 colon = system: KM12 colon
LOX IMVI melanoma = system: LOX IMVI melanoma
RPMI-8226 leukemia = system: RPMI-8226 leukemia
SR leukemia = system: SR leukemia
OVCAR-3 ovarian = system: OVCAR-3 ovarian
OVCAR-8 ovarian = system: OVCAR-8 ovarian
PC-3 prostate = system: PC-3 prostate
U251 CNS = system: U251 CNS
T-47D breast = system: T-47D breast
IGROV1 ovarian = system: IGROV1 ovarian
MDA-MB-468 breast = system: MDA-MB-468 breast

Fc1ccc(N2CC(Cn3c(C(F)(F)F)cc4c(Cl)ncnc43)C2)c(F)c1
GI50 (NCI-H23 lung): 2650 nM | TGI (NCI-H23 lung): 8.34 µM | GI50 (NCI/ADR-RES ovarian): 10.2 µM | TGI (NCI/ADR-RES ovarian): 26.5 µM | GI50 (MALME-3M melanoma): 12.6 µM | TGI (MALME-3M melanoma): 25.2 µM | GI50 (HT29 colon): 3.44 µM | TGI (HT29 colon): 16.3 µM | GI50 (A549 NSCLC): 17.3 µM | TGI (A549 NSCLC): 35.7 µM | GI50 (HCT-116 colon): 1920 nM | TGI (HCT-116 colon): 3.93 µM | GI50 (SF-268 CNS): 3.14 µM | TGI (SF-268 CNS): 11.2 µM | GI50 (A498 renal): 23.3 µM | TGI (A498 renal): 74.2 µM | GI50 (NCI-H460 lung): 3.99 µM | TGI (NCI-H460 lung): 14.3 µM | GI50 (UO-31 renal): 2680 nM | TGI (UO-31 renal): 10.8 µM | GI50 (UACC-62 melanoma): 3.16 µM | TGI (UACC-62 melanoma): 13 µM | GI50 (SF-295 CNS): 11.5 µM | TGI (SF-295 CNS): 24.5 µM | GI50 (OVCAR-4 ovarian): 12.9 µM | TGI (OVCAR-4 ovarian): 27 µM | GI50 (TK-10 renal): 19.3 µM | TGI (TK-10 renal): 50.7 µM | GI50 (HCT-15 colon): 1790 nM | TGI (HCT-15 colon): 3.55 µM | GI50 (MOLT-4 leukemia): 3.12 µM | TGI (MOLT-4 leukemia): 8.97 µM | GI50 (HL-60(TB) leukemia): 2260 nM | TGI (HL-60(TB) leukemia): 6.38 µM | GI50 (SK-OV-3 ovarian): 14.6 µM | TGI (SK-OV-3 ovarian): 29.6 µM | GI50 (M14 melanoma): 2980 nM | TGI (M14 melanoma): 10.7 µM | GI50 (HOP-62 NSCLC): 17.1 µM | TGI (HOP-62 NSCLC): 33.8 µM | GI50 (DU-145 prostate): 12.6 µM | TGI (DU-145 prostate): 25.8 µM | GI50 (SN12C renal): 1950 nM | TGI (SN12C renal): 4.97 µM | GI50 (SK-MEL-2 melanoma): 15.9 µM | TGI (SK-MEL-2 melanoma): 31.2 µM | GI50 (786-0 renal): 14.9 µM | TGI (786-0 renal): 29.1 µM | GI50 (K-562 leukemia): 2340 nM | TGI (K-562 leukemia): 7.13 µM | GI50 (MCF7 breast): 8.16 µM | TGI (MCF7 breast): 23.6 µM | GI50 (CCRF-CEM leukemia): 10.4 µM | TGI (CCRF-CEM leukemia): > 100 µM | GI50 (RXF 393 renal): 2070 nM | TGI (RXF 393 renal): 4.99 µM | GI50 (SW-620 colon): 1890 nM | TGI (SW-620 colon): 3.85 µM | GI50 (MDA-MB-231 breast): 1630 nM | TGI (MDA-MB-231 breast): 3.09 µM | GI50 (SK-MEL-5 melanoma): 10.9 µM | TGI (SK-MEL-5 melanoma): 22.9 µM | GI50 (ACHN renal): 12.9 µM | TGI (ACHN renal): 27.5 µM | GI50 (BT-549 breast): 10.7 µM | TGI (BT-549 breast): 22.9 µM | GI50 (HCC-2998 colon): 1960 nM | TGI (HCC-2998 colon): 3.48 µM | GI50 (SNB-19 CNS): 15.1 µM | TGI (SNB-19 CNS): 28.9 µM | GI50 (COLO 205 colon): 15.1 µM | TGI (COLO 205 colon): 32.5 µM | GI50 (MDA-MB-435): 4.95 µM | TGI (MDA-MB-435): 17.6 µM | GI50 (NCI-H226 lung): 14 µM | TGI (NCI-H226 lung): 31 µM | GI50 (OVCAR-5 ovarian): 17.8 µM | TGI (OVCAR-5 ovarian): 37.3 µM | GI50 (NCI-H522 lung): 1820 nM | TGI (NCI-H522 lung): 3.97 µM | GI50 (CAKI-1 renal): 11.8 µM | TGI (CAKI-1 renal): 24.2 µM | GI50 (UACC-257 melanoma): 3.1 µM | TGI (UACC-257 melanoma): 12 µM | GI50 (SNB-75 CNS): 12.1 µM | TGI (SNB-75 CNS): 24.8 µM | GI50 (HS 578T breast): 7.06 µM | TGI (HS 578T breast): 41.8 µM | GI50 (HOP-92 NSCLC): 11 µM | TGI (HOP-92 NSCLC): 25.4 µM | GI50 (EKVX NSCLC): 6.54 µM | TGI (EKVX NSCLC): 19.8 µM | GI50 (SK-MEL-28 melanoma): 2080 nM | TGI (SK-MEL-28 melanoma): 4.91 µM | GI50 (SF-539 CNS): 13.7 µM | TGI (SF-539 CNS): 28.3 µM | GI50 (KM12 colon): 16.1 µM | TGI (KM12 colon): 31.2 µM | GI50 (LOX IMVI melanoma): 1630 nM | TGI (LOX IMVI melanoma): 2990 nM | GI50 (RPMI-8226 leukemia): 23.4 µM | TGI (RPMI-8226 leukemia): 64.9 µM | GI50 (SR leukemia): 2140 nM | TGI (SR leukemia): 6.92 µM | GI50 (OVCAR-3 ovarian): 2550 nM | TGI (OVCAR-3 ovarian): 6.42 µM | GI50 (OVCAR-8 ovarian): 2150 nM | TGI (OVCAR-8 ovarian): 5.07 µM | GI50 (PC-3 prostate): 3.07 µM | TGI (PC-3 prostate): 10.9 µM | GI50 (U251 CNS): 1910 nM | TGI (U251 CNS): 3.83 µM | GI50 (T-47D breast): 13.9 µM | TGI (T-47D breast): 66.8 µM | GI50 (IGROV1 ovarian): 1850 nM | TGI (IGROV1 ovarian): 3.54 µM | GI50 (MDA-MB-468 breast): 1630 nM | TGI (MDA-MB-468 breast): 3.2 µM
